Experimental data as given in patent publication US12673077B2, “Anthelmintic probiotic compositions and methods” (priority 2014, dated 2026).
Like-named read-outs stand apart in the source and are kept apart here.

B1: Cry5B: Bacillus thuringiensis crystal (Cry) protein Cry5B, purified protein (sequence FIG. 2, SEQ ID NO:1) (protein, listed as Bacillus thuringiensis)
chain: MATINELYPVPYNVLAHPIKEVDDPYSWSNLLKGIQEGWEEWGKTGQKKLFEDHLTIAWNLYKTGKLDYFALTKASISLIGFIPGAEAAVPFINMFVDFVWPKLFGANTEGKDQQLFNAIMDAVNKMVDNKFLSYNLSTLNKTIEGLQGNLGLFQNAIQVAICQGSTPERVNFDQNCTPCNPNQPCKDDLDRVASRFDTANSQFTQHLPEFKNPWSDENSTQEFKRTSVELTLPMYTTVATLHLLLYEGYIEFMTKWNFHNEQYLNNLKVELQQLIHSYSETVRTSFLQFLPTLNNRSKSSVNAYNRYVRNMTVNCLDIAATWPTFDTHNYHQGGKLDLTRIILSDTAGPIEEYTTGDKTSGPEHSNITPNNILDTPSPTYQHSFVSVDSIVYSRKELQQLDIATYSTNNSNNCHPYGLRLSYTDGSRYDYGDNQPDFTTSNNNYCHNSYTAPITLVNARHLYNAKGSLQNVESLVVSTVNGGSGSCICDAWINYLRPPQTSKNESRPDQKINVLYPITETVNKGTGGNLGVISAYVPMELVPENVIGDVNADTKLPLTQLKGFPFEKYGSEYNNRGISLVREWINGNNAVKLSNSQSVGIQITNQTKQKYEIRCRYASKGDNNVYFNVDLSENPFRNSISFGSTESSVVGVQGENGKYILKSITTVEIPAGSFYVHITNQGSSDLFLDRIEFVPKIQFQFCDNNNLHCDCNNPVDTDCTFCCVCTSLTDCDCNNPRGLDCTLCCQVENQLPSFVTLTDLQNITTQVNALVASSEHDTLATDVSDYEIEEVVLKVDALSGEVFGKEKKALRKLVNHTKRLSKARNLLIGGNFDNLDAWYRGRNVVNVSDHELFKSDHVLLPPPTLYSSYMFQKVEESKLKANTRYTVSGFIAHAEDLEIVVSRYGQEVKKVVQVPYGEAFPLTSRGAICCPPRSTSNGKPADPHFFSYSIDVGTLDVEANPGIELGLRIVERTGMARVSNLEIREDRPLKKNELRNVQRAARNWRTAYDQERAEVTALIQPVLNQINALYENEDWNGAIRSGVSYHDLEAIVLPTLPKLNHWFMSDMLGEQGSILAQFQEALDRAYTQLEESTILHNGHFTTDAANWTIEGDAHHAILEDGRRVLRLPDWSSSVSQTIEIENFDPDKEYQLVFHAQGEGTVSLQHGEEGEYVETHPHKSANFTTSHRQGVTFETNKVTVEITSEDGEFLVDHIALVEAPLPTDDQSSDGNTTSNTNSNTSMNNNQ
modifications: pesticidal crystal (Cry)

Tests used:
A. ceylanicum = settings: cited from earlier work; for % Parasite reduction: hamsters
[1] = test system: Ancylostoma ceylanicum hookworms; assay: A. ceylanicum hookworm curative experiment in hamsters (worm burdens, fecal egg counts); assay type: in vivo; settings: single 10 mg/kg (71 nmol/kg) Cry5B dose per os
Experimental: (A) Intestinal hookworm burdens in nine hamsters following treatment with PY79-vector or PY79-Cry5B (10 mg/kg Cry5B) (error bars in all panels show standard errors). The average worm burdens were 18.6±2.6 and 1.3±0.3 for PY79-vector and PY79-Cry5B, respectively. (B) Fecal egg counts on day −1, day +1, and day +3 relative to the day of treatment. The actual egg counts for PY79-vector and PY79-Cry5B were 965±193 and 1,044±99, respectively, on day −1, 1,055±230 and 94±60, respectively, on day +1, and 1,055±227 and 100±42, respectively, on day +3. EPG, eggs per gram of feces. (C) In vivo dose-response experiment with 12 hamsters. […]
For in vivo curative experiments, male hamsters were infected per os with 150 A. ceylanicum infectious larvae. On day 17 postinoculation (p.i.), a fecal sample was collected from each hamster, and the number of eggs was counted using the modified McMaster technique (13). […] The hamsters were sacrificed on day 22 p.i., and intestinal parasite burdens were determined as described previously (14). The one-tailed Mann-Whitney test was performed to compare the two groups for significance in the experiment using a dose of 10 mg/kg of body weight (data were calculated and plotted using Prism 5 [GraphPad Software Inc., La Jolla, CA]). […]

Row | Molecule | % Parasite reduction (A. ceylanicum; 10 mg/kg) [%] | further results
1 | CN1CCCN=C1/C=C/c1cccs1 [Pyrantel, pyrantel] | 87 | –
2 | CCCSc1ccc2nc(NC(=O)OC)[nH]c2c1 [Albendazole, albendazole] | – | % Parasite reduction (A. ceylanicum; 1.25 mg/kg (4.7 μmol/kg)): 88%
3 | c1ccc([C@H]2CN3CCSC3=N2)cc1 [Levamisole, levamisole] | 60 | –
4 | C/C(=N/c1ccc(/N=C/c2ccc(/C=N/c3ccc(/N=C(/C)N(C)C)cc3)cc2)cc1)N(C)C [Tribendimidine, tribendimidine] | 75 | –
5 | B1 | – | % reduction of hookworm burden relative to control [1]: 93%; % reduction of hookworm burden (A. ceylanicum; purified protein 10 mg/kg, previously published data (ref 14)): 65%
